Tests used:
[1] = test system: myocardial infarction induced by LAD occlusion in rats; assay: Inhibition of myocardial infarction size induced by 60 minutes occlusion of the left anterior descending coronary artery in rats (experimental setup 5); type: in vivo, rat; conditions: for dose at which the maximal inhibitory effect on infarction size is achieved: 200 and 1000 μg/kg tested; for effect on myocardial infarction size (in contrast to / compared to a-MSH) / myocardial infarction size, necrotic area as % of area of risk: 3 hours after LAD-reperfusion
Experimental: Inhibition of Myocardial Infarction Size, Induced by 60 Minutes Occlusion of the Left Anterior Descending Coronary Artery in Rats.
Barrier-bred and specific pathogen-free female Wistar rats (250 g) are obtained from Charles River, Hannover, Germany. The animals are housed in a temperature (22-24° C.) and moisture (40-70%) controlled room with a 12-hour light-dark cycle (light on from 6:00 A.M. to 6:00 P.M.). All animals are given free access to tap water and a pelleted rat diet containing approximately 140 mmol/kg of sodium, 275 mmol/kg potassium and 23% protein (Altromin catalogue no. 1310, Altromin International, Lage, Germany). […] One week later the Rats are anaesthetized in an inhalation chamber with 4% isoflurane in O2. After insertion of an endotracheal tube the animal is artificially ventilated with 1.0% isoflurane in O2 using af Hugo Basile Rodent ventilator. Tidal volume is 8-10 ml/kg b.w. and respiratory rate 75 […], which maintains arterial pH between 7.35 and 7.45. During surgery the animal is placed on a heated table that maintains rectal temperature at 37-38° C. Standard ECG (second lead) is measured using a Hugo Sachs ECG Coupler and collected on line at 4,000 Hz in PowerLab. After parasternal thoracotomy and opening of the pericardium the left anterior descending coronary artery (LAD) is localized visually. An atraumatic 6-0 silk suture with an occluder that allows reopening of the ligature is placed around the LAD between the pulmonary trunk and the lower right end of the left auricle. After 10 minutes the left anterior descending coronary artery (LAD) is occluded. Successful occluding is confirmed by alterations in ECG (ST-segment elevation and increase in R-wave amplitude) and by fall in MAP. Reperfusion is made after 60 minutes by opening the occluder. Control rats are sham-operated.
The rats are subjected to one of the following i.v treatments: • Vehicle: 0.5 ml 150 mM NaCl. • a-MSH: 200 μg or 1000 μg a-melanocyte stimulating hormone/kg b.w. in 0.5 ml 150 mM NaCl.
Test compound 200 μg or 1000 μg test compound/kg b.w. in 0.5 ml 150 mM NaCl.
Treatment is given 5 minutes prior to reperfusion.
The rats are kept anaesthetized after the ischemia/reperfusion and re-occluding of the LAD is performed after three hours reperfusion. During this period ECG and MAP are measured continuously. Then Evans Blue dye (1 ml; 2% w/v) is administered i.v. to determine the size of the ischemic area. The heart is removed and cut into horizontal slices to determine the size of the ischemic area and to separate the ischemic myocardium from the non-ischemic myocardium. The ischemic area is isolated and incubated in a 0.5% triphenyltetrazolium chloride solution for 10 minutes at 37° C. The size of the necrotic tissue is then measured by used of a computerized image program. An additional setup of animals are treated with buprenorphine post-surgical and returned to there cages for measurement of left ventricular end diastolic pressure (LVEDP) two weeks later in order to evaluate the effect of the pharmacological treatment on the development of congestive heart failure. LVEDP is measured using a 2F microtip catheters inserted into the left ventricle via the right carotid artery. Isoflurane concentration is adjusted to stabilize mean arterial pressure (MAP) at 85-90 mmHg.
Data are presented as mean±S.E. Within group comparisons are analysed with Student's paired t test. Between group comparisons are performed by one way analysis of variance followed by Fishers Least Significant Difference test. Differences are considered significant at the 0.05 level.

[2] = test system: LPS induced cytokine release and pulmonary hypertension in pigs; assay: Inhibition of LPS induced cytokine release and pulmonary hypertension in pigs in vivo (experimental setup 4); parameters: species or system pig; conditions: 200 μg/kg single iv bolus
Experimental: Inhibition of LPS Induced Cytokine Release and Pulmonary Hypertension in Pigs in vivo.
Female Landrace pigs (˜30 kg) are fasted overnight but allowed free access to water. Then the pigs are premedicated with intramuscular ketamine (10 mg/kg) and midazolam (0.25 mg/kg). Anesthesia is induced with intravenous ketamine (5 mg/kg). The pigs are orally intubated, and anesthesia is maintained with a continuous intravenous infusion of fentanyl (60 μg/kg/h and midazolam (6 mg/kg/h). The animals are ventilated with a volume-controlled ventilator (Servo 900 ventilator; Siemens Elema, Solna, Sweden) with a positive end-expiratory pressure of 5 cm H2O. Tidal volume is kept at 10-15 ml/kg, and the respiratory rate adjusted (20-25 breaths/min) to maintain normocapnia (arterial carbon dioxide tension [PaCO2] in the range of 34-45 mmHg). Ventilation is performed with oxygen in air aimed tot reach an arterial oxygen tension (PaO2) higher than 105 mmHg. One arterial and 2 venous sheaths are placed in the carotid artery and corresponding veins for infusion, blood pressure measurements through fluid filled catheter, blood sampling and for introducing catheters.
Localization of the balloon-tipped catheter is determined by observing the characteristic pressure trace on the monitor as it is advance through the right side of the heart into the pulmonary artery as well as by x-ray. […]

[3] = 14 days after 60 minutes occlusion of LAD

| Substance | reduction in infarction size compared to Vehicle treated rats ([1]; 200 μg/kg body weight) [%] | reduction in infarction size compared to Vehicle treated rats ([1]; 1000 μg/kg body weight) [%] | dose at which the maximal inhibitory effect on infarction size is achieved [1] [μg/kg body weight] | effect on myocardial infarction size (in contrast to / compared to a-MSH) [1] | myocardial infarction size, necrotic area as % of area of risk ([1]; 200 μg/kg body weight iv) | myocardial infarction size, necrotic area as % of area of risk ([1]; 1000 μg/kg body weight iv) | effect on myocardial infarction size (in contrast to / compared to a-MSH) ([1]; listed as SEQ ID NO: 1) | effect on LVEDP / post-infarctional congestive heart failure [1, 3] | left ventricular end diastolic pressure (LVEDP) ([1]; 14 days after 60 minutes occlusion of LAD, 200 μg/kg bw) [mmHg] | plasma concentrations of TNFa after LPS infusion [2] | maximal increase in pulmonary artery pressure (PAP) ([2]; LPS infusion) [mmHg] | effect on myocardial infarction size (in contrast to / compared to a-MSH) ([1]; listed as SEQ ID NO: 5) | effect on myocardial infarction size (in contrast to / compared to a-MSH) ([1]; listed as SEQ ID NO: 9) |
| --- | --- | --- | --- | --- | --- | --- | --- | --- | --- | --- | --- | --- | --- |
| Ac-Lys-Lys-Lys-Lys-Lys-Lys-Ser-Tyr-Ser-Met-Glu-His-Phe-Arg-Trp-Gly-Lys-Pro-Val-NH2 (Ac-KKKKKKSYSMEHFRWGKPV-NH2) [a-MSH analogue #1] | ~30 | ~30 | 200 | reduces the myocardial infarction size | 35.7±5.6 % of area of risk | 35.0±4.4 % of area of risk | reduced the infarction size to a higher degree | marked reduction in LVEDP | 10.4±2.9 | marked reduction in plasma concentrations of TNFa | 8±2 |  |  |
| Ac-Lys-Lys-Lys-Lys-Lys-Lys-Ser-Tyr-Ser-Nle-Glu-His-(D-Phe)-Arg-Trp-Gly-Lys-Pro-Val-NH2 (KKKKKKSYSXEHFRWGKPV; N-acetyl, Nle, D-Phe, C-amide) [a-MSH analogue #2] | ~27 |  | 200 | reduces the myocardial infarction size | 37.4±5.1 % of area of risk |  |  | marked reduction in LVEDP |  |  |  | reduced the infarction size to a higher degree |  |
| Ac-Lys-Lys-Lys-Lys-Lys-Lys-Ser-Tyr-Ser-Nle-Glu-His-D-Nal-Arg-Trp-Gly-Lys-Pro-Val-NH2 (KKKKKKSYSXEHXRWGKPV; not fully specified; N-acetyl, Nle, D-Nal, C-amide) [a-MSH analogue #3] | ~24 |  | 200 | reduces the myocardial infarction size | 39.0±3.4 % of area of risk |  |  | marked reduction in LVEDP |  |  |  |  | reduced the infarction size to a higher degree |
